Measured values taken from patent US20240300980A1, “HETEROCYCLIC COMPOUNDS AS KRAS INHIBITOR, AND PREPARATION THEREFOR AND USE THEREOF IN TREATMENT” (SHANGHAI KECHOW PHARMA, INC., priority 2021, published 2024).
pIC50: −log10 of the molar value. Read-outs that look alike come from different tables or passages of the source.

Tested on: AGS cells (KRAS^G12D)
Assay: Detection of cell proliferation in vitro by MTT/MTS method (cell activity experiment)
Type: cell-based
Details: AGS cells, MTT/MTS, 3 days of drug treatment, read-out: AGS IC50
Outline: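 After 3-day compound exposure (final DMSO 0.5%), viability of AGS (KRAS G12D) cells, plated 1000/well one day before dosing, was measured at 490 nm following 4 h MTT or MTS incubation. IC50 was fitted from dose–effect curves relative to DMSO-treated wells.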

Row | pIC50 | SMILES | pIC50 (Homo sapiens, AGS, 72 h)
1 |  | Oc1cc(-c2ccc3c(N4C[C@H]5CC[C@@H](C4)S5)nc(OC[C@@]45CCCN4C[C@H](F)C5)nc3c2F)c2c(F)cccc2c1 [Example 167, 4-(4-((1R,5S)-8-thia-3-azabicyclo[3.2.1]octan-3-yl)-8-fluoro-2-(((2R,7aS)-2-fluorotetrahydro-1H-pyrrolizin-7a(5H)-yl)methoxy)quinazolin-7-yl)-5-fluoronaphthalen-2-ol] | 6.51
2 |  | CCC1C(=O)Cc2cc(O)cc(-c3ncc4c(N5C[C@H]6CC[C@@H](C5)N6)nc(OC[C@@]56CCCN5C[C@H](F)C6)nc4c3F)c21 (stereo partly drawn) [Example 263, 7-(4-((1R,5S)-3,8-diazabicyclo[3.2.1]octan-3-yl)-8-fluoro-2-(((2R,7aS)-2-fluorotetrahydro-1H-pyrrolizin-7a(5H)-yl)methoxy)pyrido[4,3-d]pyrimidin-7-yl)-1-ethyl-5-hydroxy-1,3-dihydro-2H-inden-2-one] | < 5.00
3 |  | C#Cc1c(F)ccc2cc(O)cc(-c3ccc4c(N5C[C@H]6CC[C@@H](C5)N6)nc(OC[C@@]56CCCN5C[C@H](F)C6)nc4c3OC3CC3)c12 [Example 327, 4-(4-((1R,5S)-3,8-diazabicyclo[3.2.1]octan-3-yl)-8-cyclopropoxy-2-(((2R,7aS)-2-fluorotetrahydro-1H-pyrrolizin-7a(5H)-yl)methoxy)quinazolin-7-yl)-5-ethynyl-6-fluoronaphthalen-2-ol] | 6.64
4 | < 5.60 | C#Cc1c(F)ccc2cc(O)cc(-c3ccc4c(N5C[C@H]6CC[C@@H](C5)[C@@H]6S(=O)(=O)C(F)(F)F)nc(OC[C@@]56CCCN5C[C@H](F)C6)nc4c3F)c12 [Example 132, 5-ethynyl-6-fluoro-4-(8-fluoro-2-(((2R,7aS)-2-fluorotetrahydro-1H-pyrrolizin-7a(5H)-yl)methoxy)-4-((1R,5S, 8R)-8-((trifluoromethyl)sulfonyl)-3-azabicyclo [3.2.1]octan-3-yl)quinazolin-7-yl) naphthalen-2-ol] | 
5 | < 5.60 | C#Cc1c(F)ccc2cc(O)cc(-c3ccc4c(N5C[C@H]6CC[C@@H](C5)[C@@H]6N)nc(OC[C@@]56CCCN5C[C@H](F)C6)nc4c3F)c12 [Example 128, 4-(4-((1R,5S,8R)-8-amino-3-azabicyclo [3.2.1]octan-3-yl)-8-fluoro-2-(((2R,7aS)-2-fluorotetrahydro-1H-pyrrolizin-7a(5H)-yl)methoxy)quinazolin-7-yl)-5-ethynyl-6-fluoronaphthalen-2-ol] | 
6 |  | CCc1c(F)ccc2cc(O)cc(-c3ccc4c(N5C[C@H]6CC[C@@H](C5)N6)nc(OC[C@]56CCCN5[C@@H](COC(=O)N(C)C)CC6)nc4c3F)c12 [Example 97, ((3R,7aR)-7a-(((4-((1R,5S)-3,8-diazabicyclo[3.2.1]octan-3-yl)-7-(8-ethyl-7-fluoro-3-hydroxynaphthalen-1-yl)-8-fluoroquinazolin-2-yl)oxy)methyl)hexahydro-1H-pyrrolizin-3-yl) methyl dimethylcarbamate] | 7.74
7 |  | C[C@H]1CCCc2cc(O)cc(-c3ncc4c(N5CC6CCC(C5)N6)nc(OC[C@@]56CCCN5C[C@H](F)C6)nc4c3F)c21 (single isomer, unassigned) [Example 226, (S)-4-(4-((1R,5S)-3,8-diazabicyclo[3.2.1]octan-3-yl)-8-fluoro-2-(((2R,7aS)-2-fluorotetrahydro-1H-pyrrolizin-7a(5H)-yl)methoxy)pyrido[4,3-d]pyrimidin-7-yl)-5-methyl-5,6,7,8-tetrahydronaphthalen-2-ol or (R)-4-(4-((1R,5S)-3,8-diazabicyclo[3.2.1]octan-3-yl)-8-fluoro-2-(((2R,7aS)-2-fluorotetrahydro-1H-pyrrolizin-7a(5H)-yl)methoxy)pyrido[4,3-d]pyrimidin-7-yl)-5-methyl-5,6,7,8-tetrahydronaphthalen-2-ol] | 8.62
8 |  | C#Cc1c(F)ccc2cc(O)cc(-c3ncc4c(N5CC6CCC(C5)C6S(=O)(=O)C(F)(F)F)nc(OC[C@@]56CCCN5C[C@H](F)C6)nc4c3F)c12 (stereo partly drawn) [Example 67, 5-ethynyl-6-fluoro-4-(8-fluoro-2-(((2R,7aS)-2-fluorotetrahydro-1H-pyrrolizin-7a(5H)-yl)methoxy)-4-((1R,5S, 8R)-8-((trifluoromethyl)sulfonyl)-3-azabicyclo[3.2.1]octan-3-yl)pyrido[4,3-d]pyrimidin-7-yl)naphthalen-2-ol] | < 5.00
9 |  | [O-][S+]1C2CCC1CN(c1nc(OC[C@@]34CCCN3C[C@H](F)C4)nc3c(F)c(-c4cc(O)cc5cccc(F)c45)ccc13)C2 (stereo partly drawn) [Example 168, (1R,5S,8R)-3-(8-fluoro-7-(8-fluoro-3-hydroxynaphthalen-1-yl)-2-(((2R,7aS)-2-fluorotetrahydro-1H-pyrrolizin-7a(5H)-yl)methoxy)quinazolin-4-yl)-8-thia-3-azabicyclo[3.2.1]octane 8-oxide] | < 5.60
10 |  | CCC1CCCc2cc(O)cc(-c3ncc4c(NCC5(N(C)C)CCC5)nc(OC[C@@]56CCCN5C[C@H](F)C6)nc4c3F)c21 (stereo partly drawn) [Example 422, 4-(4-(((1-(dimethylamino)cyclobutyl)methyl)amino)-8-fluoro-2-(((2R,7aS)-2-fluorotetrahydro-1H-pyrrolizin-7a(5H)-yl)methoxy)pyrido[4,3-d]pyrimidin-7-yl)-5-ethyl-5,6,7,8-tetrahydronaphthalen-2-ol] | 7.46
11 |  | C#Cc1nccc2cc(O)cc(-c3ncc4c(N5C[C@H]6CC[C@@H](C5)N6)nc(OC[C@@]56CCCN5C[C@H](F)C6)nc4c3F)c12 [Example 339, 8-(4-((1R,5S)-3,8-diazabicyclo[3.2.1]octan-3-yl)-8-fluoro-2-(((2R,7aS)-2-fluorotetrahydro-1H-pyrrolizin-7a(5H)-yl)methoxy)pyrido[4,3-d]pyrimidin-7-yl)-1-ethynylisoquinolin-6-ol] | 7.82
12 |  | CN1CCc2cc(O)cc(-c3ncc4c(N5C[C@H]6CC[C@@H](C5)N6)nc(OC[C@@]56CCCN5C[C@H](F)C6)nc4c3F)c2C1=O [Example 273, 8-(4-((1R,5S)-3,8-diazabicyclo[3.2.1]octan-3-yl)-8-fluoro-2-(((2R,7aS)-2-fluorotetrahydro-1H-pyrrolizin-7a(5H)-yl)methoxy)pyrido[4,3-d]pyrimidin-7-yl)-6-hydroxy-2-methyl-3,4-dihydroisoquinolin-1(2H)-one] | < 5.60
13 |  | Oc1cc(-c2c(Cl)cc3c(N4C[C@H]5CC[C@@H](C4)N5)nc(OC[C@@]45CCCN4C[C@H](F)C5)nc3c2OC2CC2)c2ccccc2c1 [Example 329, 4-(4-((1R,5S)-3,8-diazabicyclo[3.2.1]octan-3-yl)-6-chloro-8-cyclopropoxy-2-(((2R,7aS)-2-fluorotetrahydro-1H-pyrrolizin-7a(5H)-yl)methoxy)quinazolin-7-yl)naphthalen-2-ol] | 6.59
14 |  | CCc1ccc2cc(O)cc(C3=C(F)c4nc(OC[C@@]56CCCN5C[C@H](F)C6)nc(N5C[C@H]6CC[C@@H](C5)N6)c4C4=NCCN43)n12 [Example 412, 5-(10-((1R,5S)-3,8-diazabicyclo[3.2.1]octan-3-yl)-6-fluoro-8-(((2R,7aS)-2-fluorotetrahydro-1H-pyrrolizin-7a(5H)-yl)methoxy)-2,3-dihydroimidazo[1′,2′:1,2]pyrido[4,3-d]pyrimidin-5-yl)-3-ethylindolizin-7-ol] | 7.46
